Where no end group is shown, it is not given here.
Assays:
[1] = tested on: Vemurafenib-resistant A375 cells; assay: Cell viability (CCK-8) of Vemurafenib-resistant A375 cells; type: cell-based, human
Procedure: Viability was determined using the CCK-8 reagent (APExBIO-K1018). Absorbance was measured at 450 nm using a Varioskan LUX reader.
Vemurafenib-resistant A375 cells were generated following established protocol. Parental cells were treated with 100 nM Vemurafenib (SelleckChem #S1267) for 2 weeks, followed by stepwise doubling of drug concentration every 2 weeks up to 3.2 µM. Surviving cells in maintenance culture containing 2 µM drug were used for downstream studies.

[2] = In vitro plasma stability; type: in vitro ADME, mouse (C57BL/6); conditions: LC-MS/MS
Procedure: Each aliquot (50 µl) was mixed with 150 µl methanol, vortexed, spun, removed the supernatant and reconstituted the pellet with 150 µl 10% formic acid in water. The sample was vortexed and spun, and a 100 µl aliquot was taken, diluted 1:1 with 10 mM ammonium bicarbonate, and analyzed by LC-MS/MS. Using the remaining vs. time dataset, we performed a first-order decay analysis by fitting a linear regression to the natural log-transformed percent remaining values (excluding 0% and t = 0 anchor point) to plot the graph.

[3] = In vivo plasma pharmacokinetics; design: species or system mouse (C57BL/6); conditions: male C57BL/6 mouse, 5 mg/kg intraperitoneal, LC-MS/MS
Procedure: Blood samples (100 µl) were obtained at 0, 0.25, 0.5, 1, 2, 4, 8, and 24 h via tail vein bleeds.

[4] = tested on: B16F10-derived tumors in C57BL/6 mice; assay: B16F10 melanoma mouse tumor model; type: in vivo; conditions: CST 10 mg/kg intraperitoneally, three times per week
Procedure: Age-matched male and female C57BL/6 mice (7–9 weeks, n = 9) were subcutaneously injected with 5 × 10⁴ B16-F10 cells in 100 µL PBS. […] Tumor dimensions were measured with calipers, and volume was calculated using the formula V = (length × width²)/2. Mice were euthanized 22 days post-inoculation by inhalational isoflurane, that follow the institutional IACUC protocol and AVMA guideline for Euthanasia of animals (2020). […] Animals were continuously monitored till the loss of righting reflex and response to toe pinch was absent, thus confirming a surgical plane of anesthesia. Tissues were collected when the animals went into deep anesthesia and euthanasia was finally completely by exsanguination. […]
Fixed tumors were paraffin-embedded and sectioned (5 µm). […] The area fraction was calculated as the percentage of pixels that exceeded the threshold within the defined region of interest (ROI). Quantification was performed using Fiji (ImageJ), which computes the area fraction as the ratio of the threshold-positive area to the total ROI area, expressed as a percentage.
Apoptotic nuclei were detected in tumor sections using the CF®594 TUNEL Assay Kit (Biotium #30064). […] Fluorescence images were obtained using a Keyence microscope.
For tissue lysates from wild-type and CST-knockout (CST-KO) mice, 10 µg of total protein was analyzed by immunoblotting using an anti-CST antibody. […]

Molecule	cell viability of A375 resistant cells, single agents and combination ([1]; Vemurafenib 2 µM, CST 2 µM, alone or combined, after 48 h)	IC50 of resistant cells relative to parental cells ([1]; Vemurafenib-resistant vs parental A375) [fold]	intact material remaining ([2]; in vitro mouse plasma, 5 µg CST/ml, at ~5.6 h)	apparent first-order rate constant k ([2]; in vitro, C57BL/6 mouse plasma spiked with 5 µg CST/ml, aliquots over 24 h, linear regression of ln(% remaining) vs time, R^2 = 0.971) [h⁻¹]	Cmax ([3]; ip, plasma from tail vein bleeds 0-24 h, read-out: Cmax (maximum concentration)) [ng/mL]	Tmax (time to reach Cmax) ([3]; plasma) [min]	t1/2 (half-life) in vivo ([3]; plasma) [min]	body weight and liver histology [4]
CCCS(=O)(=O)Nc1ccc(F)c(C(=O)c2c[nH]c3ncc(-c4ccc(Cl)cc4)cc23)c1F [Vemurafenib]	little effect on cell viability	> 6						
SSMKLSFRARAYGFRGPGPQL [CST, Catestatin]			~ 50%	0.1246	160	15	89.4	No major changes in body weight or liver histology

From publication PMC13369845 (Oncogenesis, 2026)
